Measured values: US20260158028A1, “USE OF QUINOLINONE DERIVATIVE IN TREATMENT OF IMMUNE THROMBOCYTOPENIA” (CHIA TAI TIANQING PHARMACEUTICAL GROUP CO., LTD., priority 2021, published 2026)

Tested on: adult subjects with persistent or chronic immune thrombocytopenia
Assay: Clinical trial for immune thrombocytopenia (platelet counts, safety)
Assay type: in vivo, human
Conditions: for platelet count: 600 mg/d; for clinical efficacy in treating immune thrombocytopenia: adult persistent or chronic immune thrombocytopenia; for overall safety: tablets orally once daily on an empty stomach, 28-day cycles, 6 subjects; for percentage of subjects with at least one platelet count of ≥30×10^9/L and an increase of ≥2 times the baseline in platelet count / percentage of subjects with at least one platelet count of ≥50×10^9/L: within 12 weeks of treatment; for percentage of subjects with at least one platelet count of ≥30×10^9/L and an increase of ≥2 times the baseline in platelet count: in the absence of emergency treatment, evaluated patients
Procedure: Test drug: tablets of the compound of formula I, 50 mg/tablet or 200 mg/tablet; Administration regimen: orally taken once daily on an empty stomach, with 28 consecutive days of administration as one treatment cycle.
Neutrophil count (ANC)>1.5×10^9/L; hemoglobin (Hb)>90 g/L; • b. Total bilirubin (TBIL), alanine aminotransferase (ALT), and aspartate aminotransferase (AST)≤1.5 times the upper limit of normal (ULN); serum creatinine≤1.5×ULN, and creatinine clearance rate≥50 mL/min; • c. […] Prothrombin time (PT) is within the normal range±3 s, and activated partial thromboplastin time (APTT) is within the normal range±10 s; • e. The subject has no history of coagulation disorders other than immune thrombocytopenia. • 8) A female subject of childbearing age should agree to take contraceptive measures (such as intrauterine devices, contraceptives, or condoms) during the study and for 90 days after the study; serum pregnancy test results should be negative within 7 days before enrollment, and the subject must be a non-lactating one; a male subject should agree to take contraceptive measures during the study and for 6 months after the study.
Efficacy was evaluated according to the platelet counts, WHO bleeding scores, and emergency treatment received of the subjects. The effective rate of platelet count increase was used as a main measure of efficacy, and for evaluation criteria, reference was made to American Society of Hematology 2019 Guidelines for Immune Thrombocytopenia and Chinese Guidelines for Diagnosing and Treating Adult Primary Immune Thrombocytopenia (2020 Edition).
A total of 6 subjects were enrolled, with 3 in the 400 mg group (the dose for 2 of them was increased to 600 mg) and 3 in the 600 mg group.

[1] = 400 mg and 600 mg groups, listed as tablets of the compound of formula I
[2] = tablets orally once daily, 400 mg and 600 mg groups

SMILES: Cn1c(=O)c(Nc2ccc(N3CCN(C4COC4)CC3)cn2)cc2c(F)c(-c3cc[nH]n3)ccc21 [compound of formula I]
- platelet count (Subject 1, previous third-line therapy, baseline mean 22, D 3): 5.2e+10 L⁻¹
- platelet count (Subject 1, previous third-line therapy, baseline mean 22, D 11): 2.2e+11 L⁻¹
- platelet count (Subject 1, previous third-line therapy, baseline mean 22, D 18): 7e+09 L⁻¹
- platelet count (Subject 1, previous third-line therapy, baseline mean 22, D 25): 9e+09 L⁻¹
- platelet count (Subject 1, previous third-line therapy, baseline mean 22, W 5 D 1): 8.9e+10 L⁻¹
- platelet count (Subject 1, previous third-line therapy, baseline mean 22, W 6 D 1): 8.4e+10 L⁻¹
- platelet count (Subject 1, previous third-line therapy, baseline mean 22, W 7 D 1): 3.5e+10 L⁻¹
- platelet count (Subject 1, previous third-line therapy, baseline mean 22, W 8 D 1): 1.31e+11 L⁻¹
- platelet count (Subject 1, previous third-line therapy, baseline mean 22, W 9 D 1): 2.24e+11 L⁻¹
- platelet count (Subject 1, previous third-line therapy, baseline mean 22, W 10 D 1): 2.5e+10 L⁻¹
- platelet count (Subject 1, previous third-line therapy, baseline mean 22, W 12 D 1): 1e+11 L⁻¹
- platelet count (Subject 2, previous second-line therapy, baseline mean 6.5, D 3): 1e+10 L⁻¹
- platelet count (Subject 2, previous second-line therapy, baseline mean 6.5, D 11): 3.1e+10 L⁻¹
- platelet count (Subject 2, previous second-line therapy, baseline mean 6.5, D 18): 3.5e+10 L⁻¹
- platelet count (Subject 2, previous second-line therapy, baseline mean 6.5, D 25): 2.1e+10 L⁻¹
- platelet count (Subject 3, previous first-line therapy, baseline mean 33.5, D 3): 5.8e+10 L⁻¹
- platelet count (Subject 3, previous first-line therapy, baseline mean 33.5, D 11): 8.3e+10 L⁻¹
- platelet count (Subject 3, previous first-line therapy, baseline mean 33.5, D 18): 3.4e+10 L⁻¹
- clinical efficacy in treating immune thrombocytopenia: can effectively improve the platelet count
- clinical efficacy in treating immune thrombocytopenia (listed as tablets of the compound of formula I): excellent clinical efficacy
- overall safety (400 mg and 600 mg groups): good safety
- overall safety [1]: controllable
- dose-limiting toxicity (DLT) events [2]: no dose-limiting toxicity (DLT) events
- treatment-related adverse events of grade 3 or higher [2]: no treatment-related adverse events of grade 3 or higher
- percentage of subjects with at least one platelet count of ≥30×10^9/L and an increase of ≥2 times the baseline in platelet count (400 mg and 600 mg groups): relatively high
- percentage of subjects with at least one platelet count of ≥30×10^9/L and an increase of ≥2 times the baseline in platelet count [1]: 50%
- percentage of subjects with at least one platelet count of ≥50×10^9/L (400 mg and 600 mg groups): relatively high
- percentage of subjects with at least one platelet count of ≥50×10^9/L [1]: 33.3%
